# Columns and labels:
# [1] = target: T1, human D2 receptor (Homo sapiens, UniProt P14416); test: Test 1: binding activity for human D2 receptor ([3H]Spiperone, CHO cell membrane fraction); conditions: for D2 Ki/5-HT2A Ki / D2 Ki/5-HT7 Ki: ratio of Ki values
# T1 construct: purchased PerkinElmer, Inc; host or cells: CHO cells (membrane fraction)
# Protocol: (§1) Ki value was evaluated from dissociation constant which was calculated from saturated binding tests, and a substrate concentration, and it was used as an index for binding affinity.
# [2] = Test 3-1: metabolic stability test in human hepatic microsome; assay type: in vitro ADME; conditions: Test 3-1: microsome 0.1 mg/mL, test compound 0.1 μmol/L, 37° C., 30 minutes
# Protocol: Test 3-1: Metabolic Stability Test in Human Hepatic Microsome
# (§2) The metabolic stability of the present compound in human hepatic microsome was evaluated as mentioned below. Human hepatic microsome was obtained from Xenontech. Human hepatic microsome, NADPH, and each test compound were mixed in 25 mmol/L phosphate buffer solution (pH 7.4) to reach the following concentrations as shown below, and the mixture was incubated at 37° C. for 30 minutes. • Human hepatic microsome: 0.1 mg/mL • NAPDH: 3.2 mmol/L • Test compound: 0.1 μmol/L
# (§3) The residual ratio of test compound in each sample after 30 minutes was measured by LC-MS, and the metabolic stability in human hepatic microsome was calculated from the following formula. Metabolic stability in human hepatic microsome(mL/min/mg protein)=−LN(residual ratio)/30/0.1
# [3] = Test 3-2: metabolic stability test in human hepatic microsome (higher microsome concentration); assay type: in vitro ADME; conditions: Test 3-2: microsome 0.5 or 1.0 mg/mL, test compound 0.1 μmol/L, 30 or 60 minutes
# Protocol: Test 3-2: Metabolic Stability Test in Human Hepatic Microsome
# as §2, with “For more accurate evaluation of the metabolic stability in human hepatic microsome, the metabolic” for “The metabolic”, “evaluated at an appropriate concentration of human hepatic microsome” for “evaluated”, “for 60” for “for 30”, “microsome: 0.5 or 1.0” for “microsome: 0.1”
# as §3, with “of a” for “of”, “30 or 60” for “30”, “ratio)/reaction time/concentration of human hepatic microsome” for “ratio)/30/0.1”
# [4] = target: T2, human 5-HT2A receptor (Homo sapiens, UniProt P28223); test: Test 1: binding activity for human 5-HT2A receptor ([3H]Ketanserin, CHO cell membrane fraction)
# T2 sequence (P28223 whole entry): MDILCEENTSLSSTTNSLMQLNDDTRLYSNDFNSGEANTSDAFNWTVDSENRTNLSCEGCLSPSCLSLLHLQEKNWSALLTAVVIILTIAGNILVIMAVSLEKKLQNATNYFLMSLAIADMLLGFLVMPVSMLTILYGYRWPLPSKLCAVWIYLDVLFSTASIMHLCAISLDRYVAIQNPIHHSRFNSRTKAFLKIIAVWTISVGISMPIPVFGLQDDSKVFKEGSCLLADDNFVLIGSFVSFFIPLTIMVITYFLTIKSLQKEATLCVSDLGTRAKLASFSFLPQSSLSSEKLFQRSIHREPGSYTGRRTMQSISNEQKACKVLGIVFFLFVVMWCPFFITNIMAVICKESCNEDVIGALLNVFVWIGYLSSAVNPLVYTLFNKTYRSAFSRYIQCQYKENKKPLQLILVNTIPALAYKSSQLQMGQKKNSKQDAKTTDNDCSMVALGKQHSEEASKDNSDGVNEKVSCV
# Protocol: as §1
# [5] = target: T3, human 5-HT7 receptor (Homo sapiens, UniProt P34969); test: Test 1: binding activity for human 5-HT7 receptor ([3H]SB-269970, CHO cell membrane fraction)
# T3 sequence (P34969 whole entry): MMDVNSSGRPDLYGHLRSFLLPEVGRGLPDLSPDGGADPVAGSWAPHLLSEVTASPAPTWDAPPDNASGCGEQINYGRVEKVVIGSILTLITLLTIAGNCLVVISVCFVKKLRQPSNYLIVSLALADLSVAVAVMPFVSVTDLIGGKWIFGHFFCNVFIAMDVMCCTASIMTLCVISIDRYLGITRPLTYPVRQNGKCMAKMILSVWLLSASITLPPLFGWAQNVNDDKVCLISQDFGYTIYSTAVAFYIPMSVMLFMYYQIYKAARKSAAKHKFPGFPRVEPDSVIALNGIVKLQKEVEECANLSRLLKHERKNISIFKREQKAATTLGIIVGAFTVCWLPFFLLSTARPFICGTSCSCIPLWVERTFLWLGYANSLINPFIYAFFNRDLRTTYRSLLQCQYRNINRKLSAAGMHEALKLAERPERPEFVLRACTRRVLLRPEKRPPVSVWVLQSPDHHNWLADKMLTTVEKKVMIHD
# Protocol: as §1
# [6] = target: T2, human 5-HT2A receptor; test: Test 2: antagonist activity for human 5-HT2A receptor (aequorin luminescence, CHO-K1 cells); assay type: cell-based; conditions: Gα16
# Protocol: (§4) Test 2: Evaluation of Antagonist Activity for Human 5-HT2A Receptor and Human 5-HT7 Receptor
# (§5) Aequorin, Gα 16 protein, and each receptor were transiently expressed in CHO-K1 cells (Chinese hamster ovary). The cells were cultivated in a CO2 incubator at 37° C. overnight, seeded into a 384-well plate, and stood at room temperature for 2 hours. Each compound dissolved in DMSO was added thereto, and changes in luminescence were measured by FDSS/μCELL drug discovery screening support system (Hamamatsu Photonics K.K.). As for antagonist activity, inhibitory activity of each compound was calculated by setting the luminescence level of wells to which 10 μmol/L endogenous ligand was added as 100%.
# [7] = target: T3, human 5-HT7 receptor; test: Test 2: antagonist activity for human 5-HT7 receptor (aequorin luminescence, CHO-K1 cells); assay type: cell-based; conditions: Gα16
# Protocol: as §4, §5
# [8] = target: T4, hERG channel (Homo sapiens, UniProt Q12809); test: Test 5: inhibitory activity for hERG channel (whole cell patch clamp, hERG-CHO cells); assay type: cell-based
# T4 construct: host or cells: hERG-CHO cells
# T4 sequence (Q12809 whole entry): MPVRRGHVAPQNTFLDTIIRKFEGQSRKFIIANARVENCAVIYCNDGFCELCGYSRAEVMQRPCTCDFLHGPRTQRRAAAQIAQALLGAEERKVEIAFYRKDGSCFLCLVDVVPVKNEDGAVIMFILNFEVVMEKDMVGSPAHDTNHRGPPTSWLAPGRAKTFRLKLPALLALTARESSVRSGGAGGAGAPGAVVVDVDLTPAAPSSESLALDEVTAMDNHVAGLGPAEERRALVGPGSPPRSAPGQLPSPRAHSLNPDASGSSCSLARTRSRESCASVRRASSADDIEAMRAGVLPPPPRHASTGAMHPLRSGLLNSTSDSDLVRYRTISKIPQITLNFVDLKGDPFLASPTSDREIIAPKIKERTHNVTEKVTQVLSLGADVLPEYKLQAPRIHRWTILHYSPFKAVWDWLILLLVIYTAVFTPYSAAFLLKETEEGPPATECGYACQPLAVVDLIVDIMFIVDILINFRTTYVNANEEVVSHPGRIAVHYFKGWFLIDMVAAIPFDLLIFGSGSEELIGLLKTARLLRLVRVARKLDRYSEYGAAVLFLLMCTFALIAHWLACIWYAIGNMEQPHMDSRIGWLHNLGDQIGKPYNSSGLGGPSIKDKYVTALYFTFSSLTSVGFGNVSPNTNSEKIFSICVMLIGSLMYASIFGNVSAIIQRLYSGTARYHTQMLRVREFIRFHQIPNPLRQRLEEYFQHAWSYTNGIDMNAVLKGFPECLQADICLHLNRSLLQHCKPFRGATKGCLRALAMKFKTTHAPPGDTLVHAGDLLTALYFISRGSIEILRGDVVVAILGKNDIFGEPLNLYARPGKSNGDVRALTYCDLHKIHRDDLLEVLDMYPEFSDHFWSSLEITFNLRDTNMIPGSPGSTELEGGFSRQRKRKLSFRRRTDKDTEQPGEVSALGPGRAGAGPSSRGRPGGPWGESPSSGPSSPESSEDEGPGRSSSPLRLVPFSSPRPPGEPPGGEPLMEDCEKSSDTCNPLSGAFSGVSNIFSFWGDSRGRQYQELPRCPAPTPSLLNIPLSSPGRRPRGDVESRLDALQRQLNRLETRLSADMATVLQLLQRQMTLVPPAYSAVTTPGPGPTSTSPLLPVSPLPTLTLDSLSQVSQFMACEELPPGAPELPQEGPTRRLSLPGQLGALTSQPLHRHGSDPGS
# Protocol: Test 5: Evaluation of Inhibitory Activity for hERG Channel
# Inhibitory activity of the present compound for hERG channel was measured by whole cell patch clamp method with an auto patch clamp system using CHO cells in which hERG channel involved in human rapidly activating delayed rectifier potassium current (IKr) was forcibly expressed.
# hERG-CHO cells purchased from ChanTest Cop. were cultured in a CO2 incubator at 37° C., and dissociated from a flask with trypsin shortly before the measurement of hERG current to prepare a cell suspension.
# The cell suspension, the extracellular fluid, the intracellular fluid, and the measurement plate were set in an auto patch clamp system, and hERG current was measured by whole cell patch clamp method. […] Each pulse interval was 15 seconds. The data analysis was carried out with Qube Assay Software (Sophion Sophion). The test was carried out by applying incrementally 4 concentrations of each test compound, and the average of the maximum peak tail currents which were obtained from the last 3 stimulations in each concentration was determined as the evaluated data.
# T1 sequence (P14416 whole entry): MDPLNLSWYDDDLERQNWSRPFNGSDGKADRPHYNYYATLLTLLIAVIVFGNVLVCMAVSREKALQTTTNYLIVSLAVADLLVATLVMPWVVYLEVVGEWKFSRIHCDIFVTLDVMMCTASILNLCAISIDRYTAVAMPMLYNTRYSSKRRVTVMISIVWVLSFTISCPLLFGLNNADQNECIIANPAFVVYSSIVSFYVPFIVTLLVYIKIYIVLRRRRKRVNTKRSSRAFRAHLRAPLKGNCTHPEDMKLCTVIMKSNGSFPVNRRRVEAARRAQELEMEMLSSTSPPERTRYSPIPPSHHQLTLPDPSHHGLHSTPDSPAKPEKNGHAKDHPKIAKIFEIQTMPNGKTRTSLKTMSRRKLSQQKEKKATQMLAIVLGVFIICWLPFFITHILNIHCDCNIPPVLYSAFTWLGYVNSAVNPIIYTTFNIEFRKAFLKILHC
smiles,measurement,setting,value
"CCN(CCN1CCC(c2noc3cc(F)ccc23)CC1)C(=O)C(O)CN (stereo not shown) [Example 65, 3-Amino-N-ethyl-N-{2-[4-(6-fluoro-1,2-benzoisoxazol-3-yl)piperidin-1-yl]ethyl}-2-hydroxypropanamide]",D2 Ki/5-HT2A Ki,[1],48
same,D2 Ki/5-HT7 Ki,[1],26
same,Metabolic stability in human hepatic microsome,[2],<0.05 mL/min/mg protein
"CCN(CCN1CCC(c2noc3cc(F)ccc23)CC1)C(=O)[C@H](C)O [Example 16, (2S)-N-Ethyl-N-{2-[4-(6-fluoro-1,2-benzoisoxazol-3-yl)piperidin-1-yl]ethyl}-2-hydroxypropanamide]",Metabolic stability in human hepatic microsome,[2],<0.05 mL/min/mg protein
same,Metabolic stability in human hepatic microsome,[3],0.018 mL/min/mg protein
"CCN(CCN1CCC(c2noc3cc(F)ccc23)CC1)C(=O)C(O)CNC(C)=O (stereo not shown) [Example 71, 3-Acetamide-N-ethyl-N-{2-[4-(6-fluoro-1,2-benzoisoxazol-3-yl)piperidin-1-yl]ethyl}-2-hydroxypropanamide]",Ki,[4],2.2 nM
same,Ki,[5],6.2 nM
same,Ki,"[1]; human D2 receptor, [3H]Spiperone",223 nM
same,D2 Ki/5-HT2A Ki,[1],99
same,D2 Ki/5-HT7 Ki,[1],36
same,IC50,[6],25 nM
same,IC50,[7],78 nM
same,Metabolic stability in human hepatic microsome,[2],<0.05 mL/min/mg protein
same,IC50,"[8]; hERG-CHO cells, auto patch clamp",> 10 µM
same,hERG inhibitory IC50 (nmol/L)/5-HT7 Ki (nmol/L),[8]; ratio,>1624
"CCN(CCN1CCC(c2noc3cc(F)ccc23)CC1)C(=O)CCO [Example 17, N-Ethyl-N-{2-[4-(6-fluoro-1,2-benzoisoxazol-3-yl)piperidin-1-yl]ethyl}-3-hydroxypropanamide]",Metabolic stability in human hepatic microsome,[2],<0.05 mL/min/mg protein
same,Metabolic stability in human hepatic microsome,[3],0.0025 mL/min/mg protein
CCN(CCN1CCC(c2noc3cc(F)ccc23)CC1)S(=O)(=O)C(C)CO (stereo not shown) [Example 52],D2 Ki/5-HT2A Ki,[1],>34
same,D2 Ki/5-HT7 Ki,[1],>30
"CCN(CCN1CCC(c2c[nH]c3ccccc23)CC1)C(=O)[C@H](C)O [Example 23, (2S)-N-Ethyl-2-hydroxy-N-{2-[4-(1H-indol-3-yl)piperidin-1-yl]ethyl}propanamide]",Metabolic stability in human hepatic microsome,[2],<0.05 mL/min/mg protein
CCN(CCN1CCC(c2noc3cc(F)ccc23)CC1)C(=O)C1CCC(O)CC1 (stereo not shown) [Example 9],Metabolic stability in human hepatic microsome,[2],<0.05 mL/min/mg protein
CCN(CCN1CCC(c2noc3ccc(C)cc23)CC1)S(=O)(=O)CCO [Example 59],Metabolic stability in human hepatic microsome,[2],0.079 mL/min/mg protein
CCN(CCCN1CCC(c2noc3cc(F)ccc23)CC1)C(=O)[C@H](C)O [Example 38],Metabolic stability in human hepatic microsome,[2],<0.05 mL/min/mg protein
CCN(CCN1CCC(n2ncc3cc(F)ccc32)CC1)S(=O)(=O)CCO [Example 63],Metabolic stability in human hepatic microsome,[2],<0.05 mL/min/mg protein
CC(O)C(=O)N(CCN1CCC(c2noc3cc(F)ccc23)CC1)CC1CC1 (stereo not shown) [Example 30],Metabolic stability in human hepatic microsome,[2],<0.05 mL/min/mg protein
"CCN(CCN1CCC(c2noc3cc(F)ccc23)CC1)S(=O)(=O)CCO [Example 51, N-Ethyl-N-{2-[4-(6-fluoro-1,2-benzoisoxazol-3-yl)piperidin-1-yl]ethyl}-2-hydroxyethane-1-sulfonamide]",Metabolic stability in human hepatic microsome,[2],<0.05 mL/min/mg protein
same,Metabolic stability in human hepatic microsome,[3],0.016 mL/min/mg protein
CCN(CCN1CCC(c2noc3cc(F)ccc23)CC1)C(=O)C(C)(C)CO [Example 7],Metabolic stability in human hepatic microsome,[2],0.08 mL/min/mg protein

# Source: patent US12503463B2, “Aliphatic acid amide derivative” (Sumitomo Pharma Co., Ltd., priority 2019, dated 2025)
